Earlier results, collected in patent US20100285123A1, “Controlled Release Dosage Formulation of Duloxetine” (priority 2005, published 2010).
Where a name gives a salt, the structure may show the parent alone.

Columns and labels:
[1] = gastric pH
[2] = patients, acute treatment of major depression

In the case of `CNCC[C@H](Oc1cccc2ccccc12)c1cccs1` [Duloxetine hydrochloride], the “patients who did not experience any treatment experienced related adverse event” value (110 of 1279 patients) is given as 8.6%, the “patients discontinued due to adverse events” value (218 of 1279 patients, major depression, long-term) is given as 17.0% and the “headache, patients reporting” value (389 of 1279 patients) is given as 30.4%. The “insomnia, patients reporting” value (400 of 1279 patients) was 31.3%, the “nausea, patients reporting” value (435 of 1279 patients) was 34.0% and the “patients who experienced at least one or more treatment experienced adverse event” value (1169 of 1279 patients) was 91.4%. The “stability in acidic environment” value [1] was “unstable”.
In the case of `Fc1ccc([C@@H]2CCNC[C@H]2COc2ccc3c(c2)OCO3)cc1` [Paroxetine], the headache reported [2] is given as 11.5%, the incidence of nausea [2] is given as 16.1% and the insomnia reported [2] is given as 8.0%.
